pIC50: −log10 of the molar value.
Molecular target: Recombinant human cathepsin S (CatS) (Homo sapiens, UniProt P25774)
Experiment: Recombinant human cathepsin S (CatS) inhibition assay, fluorogenic substrate Z-Valine-Valine-Arginine-AMC;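 further: Baculovirus-expressed CatS in pH 5.0 sodium acetate buffer with DTT and NaCl, fluorescence read each minute over 20 min, inhibition derived from rate slope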

Recombinant human cathepsin S (CatS), sequence (P25774 115-331): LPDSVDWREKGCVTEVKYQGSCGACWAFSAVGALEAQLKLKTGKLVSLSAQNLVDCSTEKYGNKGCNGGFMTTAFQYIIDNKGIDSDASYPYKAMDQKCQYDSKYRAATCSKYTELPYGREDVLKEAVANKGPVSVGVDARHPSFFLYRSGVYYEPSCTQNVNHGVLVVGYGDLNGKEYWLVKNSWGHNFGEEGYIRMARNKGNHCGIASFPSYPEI

Structure (SMILES) | pIC50
CS(=O)(=O)N1CCc2c(c(-c3ccc(Cl)c(CCCCN4CCCCC4)c3)nn2CCCN2CCC(N3CCCC3=O)CC2)C1 [Example 110, 1-[1-(3-{3-[4-Chloro-3-(4-piperidin-1-yl-butyl)-phenyl]-5-methanesulfonyl-4,5,6,7-tetrahydro-pyrazolo[4,3-c]pyridin-1-yl}-propyl)-piperidin-4-yl]-pyrrolidin-2-one] | 5.52
CC1CCCN(CCCCc2cc(-c3nn(CCCN4CCC(N5CCCC5=O)CC4)c4c3CN(S(C)(=O)=O)CC4)ccc2Cl)C1 (stereo not drawn) [Example 111, 1-{1-[3-(3-{4-Chloro-3-[4-(3-methyl-piperidin-1-yl)-butyl]-phenyl}-5-methanesulfonyl-4,5,6,7-tetrahydro-pyrazolo[4,3-c]pyridin-1-yl)-propyl]-piperidin-4-yl}-pyrrolidin-2-one] | 5.69
CN1CCN(CCCCc2cc(-c3nn(CCCN4CCC(N5CCCC5=O)CC4)c4c3CN(S(C)(=O)=O)CC4)ccc2Cl)CC1 [Example 112, 1-{1-[3-(3-{4-Chloro-3-[4-(4-methyl-piperazin-1-yl)-butyl]-phenyl}-5-methanesulfonyl-4,5,6,7-tetrahydro-pyrazolo[4,3-c]pyridin-1-yl)-propyl]-piperidin-4-yl}-pyrrolidin-2-one] | 5.31
CS(=O)(=O)N1CCc2c(c(-c3ccc(Cl)c(CCCCN4CCOCC4)c3)nn2CCCN2CCC(N3CCCC3=O)CC2)C1 [Example 113, 1-[1-(3-{3-[4-Chloro-3-(4-morpholin-4-yl-butyl)-phenyl]-5-methanesulfonyl-4,5,6,7-tetrahydro-pyrazolo[4,3-c]pyridin-1-yl}-propyl)-piperidin-4-yl]-pyrrolidin-2-one] | 5.45
CS(=O)(=O)N1CCc2c(c(-c3ccc(Cl)c(CCCCN4CCCCCC4)c3)nn2CCCN2CCC(N3CCCC3=O)CC2)C1 [Example 114, 1-[1-(3-{3-[3-(4-Azepan-1-yl-butyl)-4-chloro-phenyl]-5-methanesulfonyl-4,5,6,7-tetrahydro-pyrazolo[4,3-c]pyridin-1-yl}-propyl)-piperidin-4-yl]-pyrrolidin-2-one] | 5.82
CS(=O)(=O)N1CCc2c(c(-c3ccc(Cl)c(CCCCNC4CCCC4)c3)nn2CCCN2CCC(N3CCCC3=O)CC2)C1 [Example 115, 1-[1-(3-{3-[4-Chloro-3-(4-cyclopentylamino-butyl)-phenyl]-5-methanesulfonyl-4,5,6,7-tetrahydro-pyrazolo[4,3-c]pyridin-1-yl}-propyl)-piperidin-4-yl]-pyrrolidin-2-one] | 5.77
CS(=O)(=O)N1CCc2c(c(-c3ccc(Cl)c(C#Cc4ccc(Cl)cc4)c3)nn2CC(O)CN2CCOCC2)C1 (stereo not drawn) [Example 124, 1-{3-[4-Chloro-3-(4-chloro-phenylethynyl)-phenyl]-5-methanesulfonyl-4,5,6,7-tetrahydro-pyrazolo[4,3-c]pyridin-1-yl}-3-morpholin-4-yl-propan-2-ol] | 6.82
CS(=O)(=O)N1CCc2c(c(-c3ccc(Cl)c(C#Cc4ccc(Cl)cc4)c3)nn2CC(O)CN2CCCCC2)C1 (stereo not drawn) [Example 125, 1-{3-[4-Chloro-3-(4-chloro-phenylethynyl)-phenyl]-5-methanesulfonyl-4,5,6,7-tetrahydro-pyrazolo[4,3-c]pyridin-1-yl}-3-piperidin-1-yl-propan-2-ol] | 7.10
CS(=O)(=O)N1CCc2c(c(-c3ccc(Cl)c(C#Cc4ccc(Cl)cc4)c3)nn2CC(O)CN2CCCC2)C1 (stereo not drawn) [Example 129, 1-{3-[4-Chloro-3-(4-chloro-phenylethynyl)-phenyl]-5-methanesulfonyl-4,5,6,7-tetrahydro-pyrazolo[4,3-c]pyridin-1-yl}-3-pyrrolidin-1-yl-propan-2-ol] | 6.92
CC(C)(C)OC(=O)N1CCN(CC(O)Cn2nc(-c3ccc(Cl)c(C#Cc4ccc(Cl)cc4)c3)c3c2CCN(S(C)(=O)=O)C3)CC1 (stereo not drawn) [Example 131, 4-(3-{3-[4-Chloro-3-(4-chloro-phenylethynyl)-phenyl]-5-methanesulfonyl-4,5,6,7-tetrahydro-pyrazolo[4,3-c]pyridin-1-yl}-2-hydroxy-propyl)-piperazine-1-carboxylic acid tert-butyl ester] | 6.80
CS(=O)(=O)N1CCc2c(c(-c3ccc(Cl)c(C#Cc4ccc(Cl)cc4)c3)nn2CC(O)CN2CCNCC2)C1 (stereo not drawn) [Example 132, 1-{3-[4-Chloro-3-(4-chloro-phenylethynyl)-phenyl]-5-methanesulfonyl-4,5,6,7-tetrahydro-pyrazolo[4,3-c]pyridin-1-yl}-3-piperazin-1-yl-propan-2-ol] | 6.41
CS(=O)(=O)N1CCc2c(c(-c3ccc(Cl)c(C#Cc4ccc5c(c4)CNCC5)c3)nn2CC(O)CN2CCCCC2)C1 (stereo not drawn) [Example 134, 1-{3-[4-Chloro-3-(1,2,3,4-tetrahydro-isoquinolin-7-ylethynyl)-phenyl]-5-methanesulfonyl-4,5,6,7-tetrahydro-pyrazolo[4,3-c]pyridin-1-yl}-3-piperidin-1-yl-propan-2-ol] | 6.74

Next, values leading:

pIC50 | Structure (SMILES)
7.40 | CS(=O)(=O)N1CCc2c(c(-c3ccc(C(F)(F)F)c(C#Cc4ccc(Cl)cc4)c3)nn2CC(O)CN2CCC(N3CCCC3=O)CC2)C1 (stereo not drawn) [Example 116, 1-[1-(3-{3-[3-(4-Chloro-phenylethynyl)-4-trifluoromethyl-phenyl]-5-methanesulfonyl-4,5,6,7-tetrahydro-pyrazolo[4,3-c]pyridin-1-yl}-2-hydroxy-propyl)-piperidin-4-yl]-pyrrolidin-2-one]
7.40 | COC(=O)C1CCN(CC(O)Cn2nc(-c3ccc(C(F)(F)F)c(C#Cc4ccc(Cl)cc4)c3)c3c2CCN(S(C)(=O)=O)C3)CC1 (stereo not drawn) [Example 117, 1-(3-{3-[3-(4-Chloro-phenylethynyl)-4-trifluoromethyl-phenyl]-5-methanesulfonyl-4,5,6,7-tetrahydro-pyrazolo[4,3-c]pyridin-1-yl}-2-hydroxy-propyl)-piperidine-4-carboxylic acid methyl ester]
7.22 | CS(=O)(=O)N1CCc2c(c(-c3ccc(C(F)(F)F)c(C#Cc4ccc(Cl)cc4)c3)nn2CC(O)CN2CCC(C(N)=O)CC2)C1 (stereo not drawn) [Example 119, 1-(3-{3-[3-(4-Chloro-phenylethynyl)-4-trifluoromethyl-phenyl]-5-methanesulfonyl-4,5,6,7-tetrahydro-pyrazolo[4,3-c]pyridin-1-yl}-2-hydroxy-propyl)-piperidine-4-carboxylic acid amide]
7.52 | CN(C)c1ccc2c(n1)n(C1CCN(CC(O)Cn3nc(-c4ccc(C(F)(F)F)c(C#Cc5ccc(Cl)cc5)c4)c4c3CCN(S(C)(=O)=O)C4)CC1)c(=O)n2C (stereo not drawn) [Example 120, 3-[1-(3-{3-[3-(4-Chloro-phenylethynyl)-4-trifluoromethyl-phenyl]-5-methanesulfonyl-4,5,6,7-tetrahydro-pyrazolo[4,3-c]pyridin-1-yl}-2-hydroxy-propyl)-piperidin-4-yl]-5-dimethylamino-1-methyl-1,3-dihydro-imidazo[4,5-b]pyridin-2-one]
6.82 | CC(C)(C)OC(=O)NC1CCN(CC(O)Cn2nc(-c3ccc(C(F)(F)F)c(C#Cc4ccc(Cl)cc4)c3)c3c2CCN(S(C)(=O)=O)C3)CC1 (stereo not drawn) [Example 121, [1-(3-{3-[3-(4-Chloro-phenylethynyl)-4-trifluoromethyl-phenyl]-5-methanesulfonyl-4,5,6,7-tetrahydro-pyrazolo[4,3-c]pyridin-1-yl}-2-hydroxy-propyl)-piperidin-4-yl]-carbamic acid tert-butyl ester]
6.59 | CS(=O)(=O)N1CCc2c(c(-c3ccc(C(F)(F)F)c(C#Cc4ccc(Cl)cc4)c3)nn2CC(O)CN2CCOCC2)C1 (stereo not drawn) [Example 122, 1-{3-[3-(4-Chloro-phenylethynyl)-4-trifluoromethyl-phenyl]-5-methanesulfonyl-4,5,6,7-tetrahydro-pyrazolo[4,3-c]pyridin-1-yl}-3-morpholin-4-yl-propan-2-ol]
8.00 | CS(=O)(=O)N1CCc2c(c(-c3ccc(Cl)c(C#Cc4ccc(Cl)cc4)c3)nn2CC(O)CN2CCC(N3CCCC3=O)CC2)C1 (stereo not drawn) [Example 123]
8.00 | CN(C)c1ccc2c(n1)n(C1CCN(CC(O)Cn3nc(-c4ccc(Cl)c(C#Cc5ccc(Cl)cc5)c4)c4c3CCN(S(C)(=O)=O)C4)CC1)c(=O)n2C (stereo not drawn) [Example 126, 3-[1-(3-{3-[4-Chloro-3-(4-chloro-phenylethynyl)-phenyl]-5-methanesulfonyl-4,5,6,7-tetrahydro-pyrazolo[4,3-c]pyridin-1-yl}-2-hydroxy-propyl)-piperidin-4-yl]-5-dimethylamino-1-methyl-1,3-dihydro-imidazo[4,5-b]pyridin-2-one]
7.70 | COC(=O)C1CCN(CC(O)Cn2nc(-c3ccc(Cl)c(C#Cc4ccc(Cl)cc4)c3)c3c2CCN(S(C)(=O)=O)C3)CC1 (stereo not drawn) [Example 127, 1-(3-{3-[4-Chloro-3-(4-chloro-phenylethynyl)-phenyl]-5-methanesulfonyl-4,5,6,7-tetrahydro-pyrazolo[4,3-c]pyridin-1-yl}-2-hydroxy-propyl)-piperidine-4-carboxylic acid methyl ester]
6.96 | CS(=O)(=O)N1CCc2c(c(-c3ccc(Cl)c(C#Cc4ccc(Cl)cc4)c3)nn2CC(O)CN2CCC(C(N)=O)CC2)C1 (stereo not drawn) [Example 128, 1-(3-{3-[4-Chloro-3-(4-chloro-phenylethynyl)-phenyl]-5-methanesulfonyl-4,5,6,7-tetrahydro-pyrazolo[4,3-c]pyridin-1-yl}-2-hydroxy-propyl)-piperidine-4-carboxylic acid amide]
7.10 | CC(C)(C)OC(=O)NC1CCN(CC(O)Cn2nc(-c3ccc(Cl)c(C#Cc4ccc(Cl)cc4)c3)c3c2CCN(S(C)(=O)=O)C3)CC1 (stereo not drawn) [Example 130, [1-(3-{3-[4-Chloro-3-(4-chloro-phenylethynyl)-phenyl]-5-methanesulfonyl-4,5,6,7-tetrahydro-pyrazolo[4,3-c]pyridin-1-yl}-2-hydroxy-propyl)-piperidin-4-yl]-carbamic acid tert-butyl ester]
6.54 | CS(=O)(=O)N1CCc2c(c(-c3ccc(Cl)c(C#Cc4ccc(Cl)cc4)c3)nn2CC(O)CN2CCC(N)CC2)C1 (stereo not drawn) [Example 133, 1-(4-Amino-piperidin-1-yl)-3-{3-[4-chloro-3-(4-chloro-phenylethynyl)-phenyl]-5-methanesulfonyl-4,5,6,7-tetrahydro-pyrazolo[4,3-c]pyridin-1-yl}-propan-2-ol]
